Structures are written as SMILES. Where “and” joins values, the source holds several entries; their conditions need not be identical. Equal values may be shown once.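 Cultured in 96-well plates, cells were exposed to test compound for 48 hours across five concentrations. Abbreviation: GI50, concentration required for 50% inhibition of growth. Definition used: TGI = concentration required for complete inhibition of growth.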

The text below walks through data of PubChem BioAssay (NCI).

What all share (assay): NCI-60 cell line screen, 48 h
Experiment [1] has as its system A549 NSCLC.
For experiment [2], the system named is EKVX NSCLC.
Experiment [3] concerns HCT-116 colon.
Experiment [4] concerns M14 melanoma.
Experiment [5] has as its system MALME-3M melanoma.
In experiment [6] the test system is NCI-H226 lung.
In experiment [7] the test system is OVCAR-3 ovarian.
Experiment [8] deals with T-47D breast.
Experiment [9] concerns U251 CNS.
For experiment [10], the system named is UACC-257 melanoma.

Regarding `Cc1nn2c(/C=C3\C(=O)Nc4ccccc43)c(C)nc2s1`, the GI50 in experiment [1] was 32.7 µM; in [2] it was 74.1 µM; in [3] it was 15.7 µM; in [4], 12.3 µM; in [5], above 100 µM; in [6], above 100 µM. Moreover, the GI50 is 35.6 µM in [7], 32 µM in [8], 71.9 µM in [9] and above 100 µM in experiment [10]. The TGI in experiment [1], in experiment [2], in experiment [3], in [4], in experiment [5] and in experiment [6] was above 100 µM each time. Further, the TGI in [7], in [8], in experiment [9] and in experiment [10] was above 100 µM each time.

In the case of `COc1cccc2ccc3c(c12)C(=O)OC31CCc2c(C)cccc21` (stereo not drawn), the TGI in [1] is above 46.4 µM; in [2], above 46.4 µM; in experiment [3] it was above 31.6 µM; in experiment [4], above 46.4 µM; in experiment [5] it was above 46.4 µM; in experiment [6], above 31.6 µM. Further, the TGI in experiment [7] is above 46.4 µM; in [8], above 100 µM; in experiment [9], above 46.4 µM; in [10], above 100 µM.

As to `O=C1NC(O)CCN1C1CC(O)C(CO)O1` (stereo not drawn), the TGI in experiment [1], in experiment [2], in experiment [3], in [4], in experiment [5] and in experiment [6] was above 100 µM each time. The TGI in experiment [7], in experiment [8], in [9] and in [10] was above 100 µM throughout.

`CC(=O)Nc1cc2cc(NS(=O)(=O)c3cc(C(F)(F)F)cc(C(F)(F)F)c3)ccc2oc1=O`: the TGI in [1], in experiment [2], in [3], in experiment [4], in experiment [5] and in experiment [6] was above 100 µM in each case. Moreover, the TGI in experiment [7], in experiment [8], in experiment [9] and in experiment [10] was above 100 µM each time.

As for `S=c1[nH]nc(SCc2ccccc2Cl)c2[nH]cnc12`, the TGI in experiment [1], in [2], in experiment [3], in experiment [4], in [5] and in experiment [6] was above 100 µM each time. The TGI in experiment [7], in experiment [8], in experiment [9] and in [10] was above 100 µM throughout.

On to `O=C(O)c1ccc2cccnc2c1O`, for which the GI50 in experiment [1] was 0.747 µM; in experiment [2] it was 1.75 µM; in experiment [3], 0.532 µM; in experiment [4] it was 1.53 µM; in [5], 1.84 µM; in experiment [6] it was 1.95 µM. Besides, the GI50 is 1.68 µM in [7], 2.18 µM in experiment [8], 0.672 µM in [9] and 2.02 µM in [10]. The TGI in experiment [1] is 25.8 µM; in experiment [2] it was above 46 µM; in experiment [3] it was 25 µM; in [4], 26.6 µM; in [5], 4.41 µM; in experiment [6] it was above 56 µM. The TGI in experiment [7] was 5.22 µM; in [8], 9.9 µM; in [9], above 59.4 µM; in experiment [10], 5.29 µM.

`COc1cc(/C=C/c2cc(/C=C/c3ccc(O)c(OC)c3)[nH]c(=O)n2)ccc1O`: the GI50 in experiment [1] was 5.2 µM; in [2] it was 3.89 µM; in experiment [3], 2.48 µM; in [4] it was 3.12 µM; in experiment [5] it was 3.91 µM; in [6], 3.48 µM. Moreover, the GI50 in experiment [7] is 3.8 µM; in experiment [8], 6.5 µM; in [9], 3.15 µM; in experiment [10], 3.36 µM. Further, the TGI in [1] is 27.6 µM; in experiment [2] it was 72.8 µM; in experiment [3] it was 12.4 µM; in experiment [4] it was 15.4 µM; in [5] it was above 100 µM; in experiment [6], 22.5 µM. Further, the TGI in [7] was found to be 33.5 µM; in experiment [8], 36.9 µM; in experiment [9], 13.5 µM; in experiment [10] it was 17.9 µM.

`O=[N+]([O-])c1ccc(NC(=S)N/N=C(\c2ccccc2)c2ccccn2)cc1`: the TGI was 3.37 µM and 3.96 µM in experiment [1]; 3.45 µM and 2.19 µM in [2]; 3.21 µM in [3]; 2.33 µM and 2.77 µM in experiment [4]; 3.52 µM in experiment [5]; 2.98 µM and 3.03 µM in [6]. Further, the TGI is 1.36 µM and 2.76 µM in experiment [7]; 3.03 µM in [8]; 3 µM and 2.68 µM in experiment [9]; 2.06 µM and 3.26 µM in [10]. The figures for the GI50 in [2], in experiment [4] and in [10] were 1.87 µM, 1.38 µM and 0.0225 µM, respectively.

`c1ccc(-c2cnc3nc4ccccc4nc3n2)cc1`: the TGI in [1] was determined as 23.6 µM; in experiment [2], 16.5 µM; in experiment [3], 21.9 µM; in experiment [4] it was 25.6 µM; in experiment [5] it was 15.8 µM; in [6], 19.7 µM. The TGI worked out at 5.63 µM in experiment [7], 47 µM in experiment [8], 22.4 µM in experiment [9] and 8.62 µM in [10].

As for `C[C@H]1CC2=CC(=O)CC[C@]2(C)[C@H]2CC[C@@]3(C)[C@@H](CC[C@]3(C)O)[C@H]12`, the GI50 in experiment [1] was 31.9 µM; in experiment [2] it was 11.3 µM; in experiment [3], 31.2 µM; in experiment [4] it was 27.2 µM; in [5] it was 26 µM; in experiment [6], 30 µM. For the same molecule, the GI50 in experiment [7] is 33.9 µM; in [8] it was 22.5 µM; in experiment [9] it was 31 µM; in experiment [10], 35.4 µM. Also, the TGI in [1] was above 100 µM; in [2], above 100 µM; in experiment [3], above 95.2 µM; in experiment [4], above 78.9 µM; in experiment [5] it was above 92.4 µM; in [6], above 100 µM. Moreover, the TGI in experiment [7] was above 91.8 µM; in experiment [8], 70.3 µM; in experiment [9], above 100 µM; in experiment [10], above 94.1 µM.

As for `COc1cc(CC2CC(c3ccc4c(c3)OCO4)OC2=O)cc(OC)c1OC` (stereo not drawn), the TGI in experiment [1], in experiment [2], in [3], in experiment [4], in [5] and in experiment [6] was above 100 µM each time. Moreover, the TGI in [7], in experiment [8], in experiment [9] and in experiment [10] was above 100 µM in each case.

Consider `Cc1cc(O)c2c(c1)C(=O)C(c1c(C)cc3c(c1O)C(=O)C1OC1C3=O)=CC2=O` (stereo not drawn), for which the TGI in experiment [1] is 43.1 µM; in experiment [2], 12.5 µM; in experiment [3], 3.21 µM; in [4], 8.12 µM; in [5], 3.96 µM; in experiment [6] it was 32.8 µM. Also, the TGI in experiment [7] was 5.87 µM; in experiment [8], above 100 µM; in [9], 20.6 µM; in experiment [10] it was 11.3 µM.

`CC(C)N(Cc1ccccc1)S(=O)(=O)c1n[nH]c(C(C)(C)C)n1`: the TGI in [1], in experiment [2], in [3], in experiment [4], in experiment [5] and in experiment [6] was above 100 µM in each case. Further, the TGI in experiment [7], in [8], in experiment [9] and in experiment [10] was above 100 µM each time.
